The source made the active and inactive calls.

Assay [1] concerns the target T1, Short transient receptor potential channel 4 (Mus musculus, UniProt Q9QUQ5).
T1 sequence (Q9QUQ5 whole entry): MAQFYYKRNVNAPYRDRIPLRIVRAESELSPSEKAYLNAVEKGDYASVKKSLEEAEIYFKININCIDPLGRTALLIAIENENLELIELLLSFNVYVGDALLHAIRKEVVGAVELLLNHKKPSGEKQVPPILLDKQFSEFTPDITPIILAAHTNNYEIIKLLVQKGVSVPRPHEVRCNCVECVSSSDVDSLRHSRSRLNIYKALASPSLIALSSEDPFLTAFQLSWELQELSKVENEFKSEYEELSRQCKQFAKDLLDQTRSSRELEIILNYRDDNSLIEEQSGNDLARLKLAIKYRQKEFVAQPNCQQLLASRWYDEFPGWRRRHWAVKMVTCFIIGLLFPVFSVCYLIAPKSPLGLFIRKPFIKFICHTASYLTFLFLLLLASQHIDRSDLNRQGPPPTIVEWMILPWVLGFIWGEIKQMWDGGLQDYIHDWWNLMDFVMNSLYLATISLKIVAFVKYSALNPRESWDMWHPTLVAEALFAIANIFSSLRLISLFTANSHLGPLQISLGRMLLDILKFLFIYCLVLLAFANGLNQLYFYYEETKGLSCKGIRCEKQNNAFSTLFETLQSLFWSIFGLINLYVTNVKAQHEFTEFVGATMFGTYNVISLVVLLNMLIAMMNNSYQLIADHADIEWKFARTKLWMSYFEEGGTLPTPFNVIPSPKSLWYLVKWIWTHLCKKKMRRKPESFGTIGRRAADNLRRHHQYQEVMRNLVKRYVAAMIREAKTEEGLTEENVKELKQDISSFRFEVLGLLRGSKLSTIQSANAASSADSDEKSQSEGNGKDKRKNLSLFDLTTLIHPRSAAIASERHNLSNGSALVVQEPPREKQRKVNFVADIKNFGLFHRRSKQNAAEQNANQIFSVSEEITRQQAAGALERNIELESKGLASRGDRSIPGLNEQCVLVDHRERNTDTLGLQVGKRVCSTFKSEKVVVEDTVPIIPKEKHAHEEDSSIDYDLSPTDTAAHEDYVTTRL
Put plainly: potentiation of DAMGO-evoked TRPC4 calcium signal – cell-based, HEK293 TRPC4/mu-opioid, Fluo-4 calcium, EC20 DAMGO, dose response (AID 434941).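 Note: HEK293 cells coexpressing TRPC4 and mu opioid receptor stimulated by EC20 DAMGO.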 Type of assay: functional.

Assay [2] concerns the target Eukaryotic translation initiation factor 4E (Mus musculus, UniProt P63073). Put plainly: blockers of eIF4G binding by eIF4E – biochemical, TR-FRET, dose response (AID 855).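 Note: potency for disrupting eIF4E binding to eIF4GI seen as loss of FRET.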 The class given is functional.
For assay [3], the target named is Envelope glycoprotein gp160 (Human immunodeficiency virus 1, UniProt Q6QLK5). Put plainly: cell-free HIV fusion peptide-binding blockers – biochemical, uHTS, fluorescence dequenching, […] (AID 1986).
The target in assay [4] is T2, Tyrosine-protein phosphatase non-receptor type 22 (Homo sapiens, UniProt Q9Y2R2).
T2 sequence (Q9Y2R2 whole entry): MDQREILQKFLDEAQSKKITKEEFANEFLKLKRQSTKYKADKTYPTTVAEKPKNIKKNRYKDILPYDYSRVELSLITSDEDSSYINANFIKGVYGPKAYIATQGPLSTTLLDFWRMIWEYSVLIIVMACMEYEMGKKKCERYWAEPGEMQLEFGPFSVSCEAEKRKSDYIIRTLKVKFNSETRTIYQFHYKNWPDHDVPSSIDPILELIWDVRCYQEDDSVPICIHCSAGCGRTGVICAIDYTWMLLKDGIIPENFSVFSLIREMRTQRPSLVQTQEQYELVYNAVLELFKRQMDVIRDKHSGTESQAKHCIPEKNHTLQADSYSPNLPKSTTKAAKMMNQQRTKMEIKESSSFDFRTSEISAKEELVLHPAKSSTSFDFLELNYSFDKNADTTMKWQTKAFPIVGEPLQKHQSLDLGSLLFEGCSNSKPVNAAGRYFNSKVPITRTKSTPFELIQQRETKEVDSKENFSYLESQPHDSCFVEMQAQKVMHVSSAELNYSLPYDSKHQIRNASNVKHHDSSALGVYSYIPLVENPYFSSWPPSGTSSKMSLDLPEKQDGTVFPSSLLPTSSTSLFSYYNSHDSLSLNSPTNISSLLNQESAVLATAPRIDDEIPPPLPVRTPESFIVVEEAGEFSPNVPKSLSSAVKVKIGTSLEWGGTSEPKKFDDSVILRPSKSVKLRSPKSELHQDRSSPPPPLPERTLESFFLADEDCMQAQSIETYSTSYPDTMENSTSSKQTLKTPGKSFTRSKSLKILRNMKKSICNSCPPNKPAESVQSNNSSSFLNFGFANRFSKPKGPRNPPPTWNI
The class given is functional.

Assay [5] deals with T3, Tyrosine-protein phosphatase non-receptor type 7 (Homo sapiens, UniProt P35236).
T3 sequence (P35236 whole entry): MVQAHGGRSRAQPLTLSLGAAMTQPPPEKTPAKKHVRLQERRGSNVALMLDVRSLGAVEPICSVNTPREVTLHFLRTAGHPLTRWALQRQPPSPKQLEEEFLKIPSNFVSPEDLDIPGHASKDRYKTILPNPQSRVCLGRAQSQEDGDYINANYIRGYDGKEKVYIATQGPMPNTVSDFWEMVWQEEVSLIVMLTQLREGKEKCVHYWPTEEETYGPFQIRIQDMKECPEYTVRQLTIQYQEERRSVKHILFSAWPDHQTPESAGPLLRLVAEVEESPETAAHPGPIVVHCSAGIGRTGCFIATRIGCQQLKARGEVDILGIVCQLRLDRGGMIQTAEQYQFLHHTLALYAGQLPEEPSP
The class given is functional.

For assay [6], the target named is T4, Voltage-gated N-type calcium channel alpha-1B subunit/Amyloid beta A4 precursor protein-binding family A member 1 (Homo sapiens, UniProt Q00975+Q02410). The class given is protein assay.
Assay [7] has as its target T2, Tyrosine-protein phosphatase non-receptor type 22. The class given is functional. The source holds these as a separate data set.
The target in assay [8] is T4, Voltage-gated N-type calcium channel alpha-1B subunit/Amyloid beta A4 precursor protein-binding family A member 1. Type of assay: protein assay. This is another data set of the same source.
For assay [9], the target named is T2, Tyrosine-protein phosphatase non-receptor type 22. Put plainly: PTPN22 lymphoid phosphatase activity blockers – biochemical, fluorescence intensity, uHTS (AID 1779).
Assay [10] concerns the target FAD-linked sulfhydryl oxidase ALR (Homo sapiens, UniProt P55789). Put plainly: ALR-catalysed DTT oxidation blockers – biochemical, H2O2 detection, luminescence, cherry-pick, dose response (AID 493248).
A further assay has as its target Large T antigen (Simian virus 40, UniProt P03070). Type of assay: functional, Betapolyomavirus macacae.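 Note: Confirmatory-stage PubChem screen for compounds that inhibit SV40 T antigen.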
Assay [11] addresses DNA dC->dU-editing enzyme APOBEC-3A (Homo sapiens, UniProt P31941). Put plainly: A3A deaminase inhibition for selectivity – biochemical, dose response (AID 504722). Type of assay: functional.
In assay [12] the target is DNA dC->dU-editing enzyme APOBEC-3G (Homo sapiens, UniProt Q9HC16). Put plainly: Dose Response confirmation of small molecule APOBEC3G DNA Deaminase Inhibitors via a fluorescence-based single-stranded DNA deaminase assay. [Related pubchem assays (depositor defined):AID493012, AID493028]. Type of assay: functional.
Assay [13] is described as follows: NIH-3T3 fibroblast cytotoxicity, dose response, cytotoxicity control, cell-based, fluorescence, Alamar Blue, secondary assay (AID 2327).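 Note: NIH-3T3 mouse fibroblasts cultured with fluconazole at 8 µg/mL.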 Type of assay: functional.
The next assay relates to HT-1080. Put plainly: HT1080 cell viability loss – fluorescence readout (AID 620). Type of assay: functional, cell-based. As to conditions: Homo sapiens.
Assay [14] in a line: fluconazole-exposed Candida albicans growth modulators – fluorescence, retest, confirmation (AID 2467). The class given is functional, cell-based.
In assay [15] the target is T5, Ubiquitin-conjugating enzyme E2 N (Homo sapiens, UniProt P61088).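 Note: Dose-response confirmation in a TR-FRET assay detecting UBC13-driven polyubiquitin chain formation, inhibition measured.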
T5 sequence (P61088 whole entry): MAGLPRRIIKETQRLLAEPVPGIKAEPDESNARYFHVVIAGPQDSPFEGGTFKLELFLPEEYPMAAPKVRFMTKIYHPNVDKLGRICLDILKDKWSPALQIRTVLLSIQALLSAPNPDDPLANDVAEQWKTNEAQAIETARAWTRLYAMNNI
The class given is functional.

Another assay deals with Beta-galactosidase (Escherichia coli, UniProt Q8VNN2). Put plainly: detection-enzyme interference by beta-gal modulators – biochemical, E. coli enzyme, set 3, artefact control for CCR6 antagonist project, dose response (AID 504712). The class given is functional.
Assay [16] is described as follows: HPDE-C7 pancreatic duct cell viability loss – fluorescence, HTS (AID 430). The class given is functional, cell-based. The note with it: Homo sapiens.
Assay [17] is described as follows: microbe, parasite or virus in culture. The note with it: Mycobacterium tuberculosis. Type of assay: functional.
The nature of assay [18]: viability loss of HPDE-C7K cells – cell-based, fluorescence, HTS, primary screen (AID 431). The class given is functional. The note with it: Homo sapiens.
Assay [19] in a line: viability of HCT116 lacking mutant beta-catenin – cell-based, human colon tumor, dose response (AID 1045).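 Note: HCT116 colon tumor cells with beta catenin knocked out; cells exposed to compound for 60 hours.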 The class given is functional.
Assay [20] can be described thus: viability of PTEN-deleted HCT116 cells – cell-based, HCT116 PTEN knockout, dose response (AID 1047).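 Note: HCT116 colon tumor cells with PTEN knocked out; cells exposed to compound for 60 hours before readout; potency for loss of cell viability measured by luminescence.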 Type of assay: functional.
The target in assay [21] is Luciferin 4-monooxygenase (Photinus pyralis, UniProt P08659). Put plainly: Counter Screen for Luciferase-based Assay Positives. [Related pubchem assays: 620, 618, 411 ].
The target in another assay is Nonstructural protein 1 (Influenza A virus, UniProt Q194T2). The class given is functional, Influenza A virus (A/California/07/2009(H1N1)).
The target in assay [22] is Voltage-dependent T-type calcium channel subunit alpha-1H (Homo sapiens, UniProt O95180). Put plainly: human CACNA1H calcium influx blockade – cell-based, synthetic library set 1, calcium flux (AID 493022). The class given is functional.

T4 sequence (Q00975 whole entry): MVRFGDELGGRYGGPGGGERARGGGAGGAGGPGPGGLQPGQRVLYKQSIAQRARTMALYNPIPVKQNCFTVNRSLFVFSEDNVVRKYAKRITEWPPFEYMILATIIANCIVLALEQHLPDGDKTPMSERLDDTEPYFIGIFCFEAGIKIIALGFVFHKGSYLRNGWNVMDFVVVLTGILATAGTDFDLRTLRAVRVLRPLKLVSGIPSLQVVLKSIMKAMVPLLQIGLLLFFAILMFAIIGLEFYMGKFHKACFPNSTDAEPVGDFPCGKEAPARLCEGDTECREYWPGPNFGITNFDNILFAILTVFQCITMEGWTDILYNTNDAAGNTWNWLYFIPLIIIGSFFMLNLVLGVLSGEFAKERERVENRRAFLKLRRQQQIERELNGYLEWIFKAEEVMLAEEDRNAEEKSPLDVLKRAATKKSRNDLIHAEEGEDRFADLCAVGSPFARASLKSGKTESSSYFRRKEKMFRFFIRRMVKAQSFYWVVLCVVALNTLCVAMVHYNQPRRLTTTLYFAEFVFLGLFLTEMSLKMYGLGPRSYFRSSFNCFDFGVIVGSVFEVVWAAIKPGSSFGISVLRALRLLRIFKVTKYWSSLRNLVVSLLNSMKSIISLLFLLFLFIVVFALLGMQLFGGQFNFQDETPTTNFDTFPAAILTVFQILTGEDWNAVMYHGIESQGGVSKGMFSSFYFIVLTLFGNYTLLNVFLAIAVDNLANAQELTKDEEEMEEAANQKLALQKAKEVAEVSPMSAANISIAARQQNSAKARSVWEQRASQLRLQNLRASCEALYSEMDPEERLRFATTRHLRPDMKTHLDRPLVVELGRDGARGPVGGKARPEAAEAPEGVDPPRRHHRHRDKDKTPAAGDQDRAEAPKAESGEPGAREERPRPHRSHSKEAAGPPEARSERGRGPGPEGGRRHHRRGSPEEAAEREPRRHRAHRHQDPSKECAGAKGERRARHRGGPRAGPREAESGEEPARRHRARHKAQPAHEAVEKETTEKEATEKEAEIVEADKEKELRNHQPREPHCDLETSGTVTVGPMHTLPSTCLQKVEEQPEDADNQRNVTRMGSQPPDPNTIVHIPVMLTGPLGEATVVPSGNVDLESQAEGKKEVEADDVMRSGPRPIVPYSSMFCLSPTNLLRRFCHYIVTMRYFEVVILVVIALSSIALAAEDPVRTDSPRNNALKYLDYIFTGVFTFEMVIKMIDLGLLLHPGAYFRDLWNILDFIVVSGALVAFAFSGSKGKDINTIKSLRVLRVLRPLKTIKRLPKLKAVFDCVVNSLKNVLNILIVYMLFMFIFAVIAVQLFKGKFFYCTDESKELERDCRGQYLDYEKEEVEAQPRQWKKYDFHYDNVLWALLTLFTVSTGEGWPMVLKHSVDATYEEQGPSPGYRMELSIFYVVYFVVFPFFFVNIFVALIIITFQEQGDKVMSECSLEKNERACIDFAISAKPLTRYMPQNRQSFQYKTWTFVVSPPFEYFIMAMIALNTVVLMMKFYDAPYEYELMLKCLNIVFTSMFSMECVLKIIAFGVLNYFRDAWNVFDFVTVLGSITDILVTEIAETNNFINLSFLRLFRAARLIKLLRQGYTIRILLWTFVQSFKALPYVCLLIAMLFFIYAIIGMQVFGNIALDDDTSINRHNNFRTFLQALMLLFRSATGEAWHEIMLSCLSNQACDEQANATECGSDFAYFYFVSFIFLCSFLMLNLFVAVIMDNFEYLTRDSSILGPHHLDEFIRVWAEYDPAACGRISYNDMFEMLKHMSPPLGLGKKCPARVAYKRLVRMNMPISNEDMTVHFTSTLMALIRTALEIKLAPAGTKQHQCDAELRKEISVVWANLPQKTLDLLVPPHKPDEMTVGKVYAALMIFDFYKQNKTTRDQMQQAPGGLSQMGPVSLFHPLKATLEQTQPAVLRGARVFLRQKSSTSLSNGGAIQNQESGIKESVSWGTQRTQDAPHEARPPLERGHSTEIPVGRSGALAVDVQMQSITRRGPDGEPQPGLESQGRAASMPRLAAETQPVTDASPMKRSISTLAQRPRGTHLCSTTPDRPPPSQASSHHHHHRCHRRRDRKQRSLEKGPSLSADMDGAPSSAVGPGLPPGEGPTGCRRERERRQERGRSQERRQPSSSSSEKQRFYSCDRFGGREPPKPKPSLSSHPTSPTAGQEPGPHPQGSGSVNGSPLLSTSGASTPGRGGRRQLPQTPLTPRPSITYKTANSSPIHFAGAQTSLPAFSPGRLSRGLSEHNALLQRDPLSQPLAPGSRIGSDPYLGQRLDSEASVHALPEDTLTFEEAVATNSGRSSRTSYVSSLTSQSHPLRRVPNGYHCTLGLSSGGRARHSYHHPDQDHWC
T4 sequence (Q02410 whole entry): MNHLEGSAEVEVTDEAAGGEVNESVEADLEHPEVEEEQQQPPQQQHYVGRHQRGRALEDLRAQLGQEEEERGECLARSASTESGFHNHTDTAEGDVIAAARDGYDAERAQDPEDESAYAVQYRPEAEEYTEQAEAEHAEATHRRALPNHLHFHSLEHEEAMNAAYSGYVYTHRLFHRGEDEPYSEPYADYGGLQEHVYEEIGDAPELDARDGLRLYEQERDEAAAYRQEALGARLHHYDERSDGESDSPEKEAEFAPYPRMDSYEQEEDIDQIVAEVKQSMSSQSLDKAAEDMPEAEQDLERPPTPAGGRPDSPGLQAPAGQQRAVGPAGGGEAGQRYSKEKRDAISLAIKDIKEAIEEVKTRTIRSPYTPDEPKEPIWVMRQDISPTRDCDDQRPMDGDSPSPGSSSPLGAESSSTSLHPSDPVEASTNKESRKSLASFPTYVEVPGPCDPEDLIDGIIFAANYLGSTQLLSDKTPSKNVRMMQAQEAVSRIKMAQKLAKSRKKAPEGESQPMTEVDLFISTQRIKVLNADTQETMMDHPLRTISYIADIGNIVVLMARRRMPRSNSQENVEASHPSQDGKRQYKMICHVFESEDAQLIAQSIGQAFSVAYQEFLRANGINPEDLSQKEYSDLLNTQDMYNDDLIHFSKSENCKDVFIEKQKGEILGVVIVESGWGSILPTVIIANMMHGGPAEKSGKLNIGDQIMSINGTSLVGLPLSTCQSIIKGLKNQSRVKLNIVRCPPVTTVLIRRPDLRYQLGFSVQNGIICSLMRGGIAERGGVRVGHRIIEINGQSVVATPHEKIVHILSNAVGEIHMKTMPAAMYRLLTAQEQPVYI
Chain of Beta-galactosidase (Q8VNN2 whole entry): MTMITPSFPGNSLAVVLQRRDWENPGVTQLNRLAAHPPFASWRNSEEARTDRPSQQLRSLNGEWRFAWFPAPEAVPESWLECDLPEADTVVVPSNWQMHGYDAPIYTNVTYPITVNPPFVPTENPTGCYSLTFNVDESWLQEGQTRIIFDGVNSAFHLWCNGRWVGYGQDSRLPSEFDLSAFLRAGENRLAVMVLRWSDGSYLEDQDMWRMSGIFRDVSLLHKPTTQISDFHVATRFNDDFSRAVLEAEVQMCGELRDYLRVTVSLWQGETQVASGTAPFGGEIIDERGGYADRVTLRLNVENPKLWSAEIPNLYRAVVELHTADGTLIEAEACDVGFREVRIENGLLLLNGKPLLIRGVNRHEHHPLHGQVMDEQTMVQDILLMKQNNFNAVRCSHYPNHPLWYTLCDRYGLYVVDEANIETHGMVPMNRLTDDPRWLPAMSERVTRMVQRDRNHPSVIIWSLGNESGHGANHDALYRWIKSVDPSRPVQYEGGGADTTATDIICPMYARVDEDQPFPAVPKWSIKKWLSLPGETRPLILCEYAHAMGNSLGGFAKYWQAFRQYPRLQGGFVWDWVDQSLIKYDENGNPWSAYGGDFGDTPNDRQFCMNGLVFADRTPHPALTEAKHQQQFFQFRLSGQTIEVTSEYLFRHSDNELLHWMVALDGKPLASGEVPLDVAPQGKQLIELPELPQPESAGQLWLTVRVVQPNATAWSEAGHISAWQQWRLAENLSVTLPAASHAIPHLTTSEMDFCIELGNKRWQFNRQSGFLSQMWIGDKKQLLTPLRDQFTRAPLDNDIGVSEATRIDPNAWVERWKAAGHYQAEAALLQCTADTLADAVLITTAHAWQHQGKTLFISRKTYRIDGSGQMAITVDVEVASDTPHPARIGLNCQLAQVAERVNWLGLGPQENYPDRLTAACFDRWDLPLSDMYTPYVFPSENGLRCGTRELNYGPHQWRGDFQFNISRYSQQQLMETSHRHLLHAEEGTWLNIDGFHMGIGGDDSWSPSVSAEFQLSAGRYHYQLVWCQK
Chain of Envelope glycoprotein gp160 (Q6QLK5 whole entry, the tested form may be a part): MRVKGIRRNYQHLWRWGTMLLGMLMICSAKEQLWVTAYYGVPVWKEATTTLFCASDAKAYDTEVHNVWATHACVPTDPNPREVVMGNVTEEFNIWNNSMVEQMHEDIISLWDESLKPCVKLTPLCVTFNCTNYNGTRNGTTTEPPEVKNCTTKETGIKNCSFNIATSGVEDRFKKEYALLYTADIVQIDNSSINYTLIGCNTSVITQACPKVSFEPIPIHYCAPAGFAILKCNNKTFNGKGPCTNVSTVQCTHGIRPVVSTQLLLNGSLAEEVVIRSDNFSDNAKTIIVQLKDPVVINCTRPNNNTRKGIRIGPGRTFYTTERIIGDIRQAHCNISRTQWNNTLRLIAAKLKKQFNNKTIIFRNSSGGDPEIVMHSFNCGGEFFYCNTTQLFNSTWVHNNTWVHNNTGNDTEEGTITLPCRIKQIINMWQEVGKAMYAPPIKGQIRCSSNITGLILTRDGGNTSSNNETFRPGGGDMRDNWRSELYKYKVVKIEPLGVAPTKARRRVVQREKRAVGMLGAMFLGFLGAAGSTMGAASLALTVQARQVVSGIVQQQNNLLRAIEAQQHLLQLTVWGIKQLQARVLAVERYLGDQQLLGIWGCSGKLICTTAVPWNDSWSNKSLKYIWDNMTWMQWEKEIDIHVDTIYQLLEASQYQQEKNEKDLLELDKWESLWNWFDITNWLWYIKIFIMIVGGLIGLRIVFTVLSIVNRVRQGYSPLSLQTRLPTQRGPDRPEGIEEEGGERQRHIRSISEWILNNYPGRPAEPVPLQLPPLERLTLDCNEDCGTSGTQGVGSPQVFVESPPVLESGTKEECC

On to `Cc1cccc(/C=N/NC(=O)c2cc(Br)ccc2O)n1`, for which the EC50 in [1] was 4.22 µM (active).

On to `CCOc1cc(/C=N/NC(=O)c2ccc(-c3csc(Nc4ccc(C)cc4)n3)cc2)ccc1OCC(=O)O`, for which the IC50 was 50 µM (inactive) in assay [2]; 7.29 µM (active) in [3]; 6.63 µM (active) in assay [4]; 3.93 µM (active) in [5]; 11.1 µM (active) in assay [6]; 4.68 µM (active) in [7]. For the same compound, the results for the IC50 in assay [8] and in [9] were 49.1 µM (active) and 8.71 µM (active), respectively.

On to `COc1cccc(/C=N/n2c(S)nnc2-c2cc(C)[nH]n2)c1O`, for which the AC50 in assay [10] is 3.54 µM (active). For the same compound, the IC50 on Large T antigen is 16 µM (active); in [11] it was > 100 µM (inactive); in [12] it was 4.07 µM (active).

Consider `CN1CCN(CC(=O)N2CCn3c4c(c5cc(C6CCCCC6)ccc53)CCCC42)CC1` (stereo unspecified), for which the EC50 in [13] was > 150 µM (inconclusive); with HT-1080 it was 14.7 µM (active); in assay [14], > 38 µM (not active); in assay [16], 3.48 µM (active); in assay [18], 4.39 µM (active); in assay [19], 3.56 µM (active). The EC50 in [20] was 3.99 µM (active); in assay [21], 0.84 µM (active). Moreover, the IC50 in assay [15] was > 20 µM (inactive); at Beta-galactosidase it was > 66.6 µM (inactive); at Nonstructural protein 1, 18.9 µM (active). Further, the CC50 in assay [17] is 6.93 µM (active).

For the compound `O=C(COc1ccccc1Cl)Nc1nnc(-c2ccc3c(c2)OCO3)o1`, in assay [22], the EC50 was 3 µM (active).

The values above are taken from ChEMBL document CHEMBL1201862, “PubChem BioAssay data set” (2004).
